Experimental data reported in patent publication US8927547B2, “Pyrimidine derivatives” (Noviga Research AB, priority 2010, dated 2015).

What was measured:
Type in all cases: cell-based
A2780/Adr = assay: FMCA, A2780/Adr doxorubicin-resistant ovarian cancer; conditions: read-out: EC50 (μM) in various cancer cell lines: A2780/Adr
Text: (§1) The Fluorometric Microculture Cytotoxicity Assay, FMCA, is a three day non-clonogenic microplate-based cell viability assay used for measurement of the cytotoxic and/or cytostatic effect of compounds in vitro (Lindhagen, E., et al. Nat Protoc, 2008. 3(8): p. 1364-9). FMCA (Larsson, R. and P. Nygren, Anticancer Res, 1989. 9(4): p. 1111-9) represents a valuable method to measure cytotoxicity in a number of cell types, both cell lines and primary cells from patients (Larsson, R., et al., Int J Cancer, 1992. 50(2): p. 177-85; Fridborg, H., et al., Eur J Cancer, 1999. 35(3): p. 424-32; Dhar, S., et al., Br J Cancer, 1996. 74(6): p. 888-96).
(§2) FMCA is based on the principle that fluorescein diacetate (FDA) is converted to the fluorescent probe fluorescein by esterases in the plasma membranes of living cells. For experiments, 96 or 384-well microplates are prepared with compounds and stored at −70° C. until use. Cells are then seeded into the drug-prepared plates and placed in an incubator for 72 h. On the last day of incubation, the plates are washed and a buffer containing FDA is added and incubated with the cells for 45 minutes. Finally the fluorescence per well is measured in a fluorometer and a Survival Index % (SI) for each compound-treated well is calculated with the equation: Compound-treated cells minus blank divided by control cells minus blank. A high SI-value indicates a large percentage of living cells and vice versa.
(§3) Compounds of the invention as well as kinase inhibitors sorafenib, sunitinib, dasatinib, and pazopanib (reference compounds) were diluted with PBS to a concentration which was ten-times higher than the desired starting concentration. Then, a Biomek 2000 liquid handling system was employed to serially dilute the compounds in a deep-well 384-well plate. From this plate, assay plates containing 5 μl compound per well were prepared with the Biomek 2000. Certain compounds precipitated when diluted with PBS, and these compounds were therefore prepared in a 96-well plate manually as described above using culture medium RPMI 1640 instead of PBS.
(§4) The compounds were also tested at five concentrations, with five times serial dilution on the following cell types: CCRF-CEM, hTERT-RPE1 (normal retinal epithelial cells), hRPTEpiC (normal renal cells) and PBMC (peripheral blood mononuclear cells). Each experiment was performed three times, except for PBMC and hRPTEpiC, which were performed twice. SI-values were calculated, graphs were plotted using GraphPadPrism 5.0 (GraphPad Software Inc. La Jolla, Calif.) and EC50-values for each cell type and compound were determined from the curves.
(§5) The compounds of the invention were also tested on further cancer cell lines related to colon cancer (HCT116; see e.g Brattain M G, et al. Cancer Res. 1981, 41, 1751-1756), breast cancer (MCF7; see e.g. Soule H D, et al. J. Natl. Cancer Inst. 1973, 51, 1409-1416), teniposide-resistant leukaemia (CEM/VM1; see e.g. Danks M K et al. Cancer Res. 1987, 47, 1297-1301), lung cancer (H69; see e.g. Gazdar A F, et al. Cancer Res. 1980, 40, 3502-3507), doxorubicin-resistant lung cancer (H69AR; see e.g. Mirski S E, et al. Cancer Res. 1987, 47, 2594-2598), myeloma (RPMI 8226; see e.g. Matsuoka Y, et al. Proc. Soc. Exp. Biol. Med. 1967, 125, 1246-1250), doxorubicin-resistant myeloma (8226/Dox40; see e.g. Dalton W S et al. Blood 1989, 15,747-752), lymphoma (U-937, see e.g. Sundstrom C, et al. Int. […]

BxPC-3 = assay: FMCA, BxPC-3 pancreatic cancer; conditions: Homo sapiens, read-out: EC50 (μM) in various cancer cell lines: BxPC-3
Text: as §1
as §2, with “versa. […]” for “versa.”
as §4, with “Each experiment was performed three times, except for PBMC and hRPTEpiC, which were performed twice.” left out, “curves. […]” for “curves.”

MCF7 = assay: FMCA, MCF7 breast cancer; conditions: Homo sapiens, read-out: EC50 (μM) in various cancer cell lines: MCF7
Text: as §1, §2, §3, §4
as §5, with “Int. J. Cancer 1976, 17, 565-577), vincristin-resistant lymphoma (U-937-vcr; see e.g. Botling J, et al. Int J Cancer 1994, 15; 58 (2), 269-274), ovarian cancer (A2780; see e.g. Hamilton T C, et al. Semin Oncol. 1984, 11, 285-298), doxorubicin-resistant ovarian cancer (A2780/Adr), cisplatin-resistant ovarian cancer (A2780/Cis; see e.g. Behrens B C, et al. Cancer Res. 1987, 47, 414-418), renal cancer (ACHN; see e.g. Borden E C, et al. Cancer Res. 1982, 42(12), 4948-4953), pancreatic cancer (PANC-1, BxPC-3, and MIA PaCa-2; see e.g. Lieber M, et al. Int.” for “Int.”

[1] = system: CCRF-CEM cancer cells - leukaemia; assay: Fluorometric Microculture Cytotoxicity Assay (FMCA), CCRF-CEM; conditions: Homo sapiens, 72 h incubation
Text: as §1, §2
In subsequent experiments, compounds were tested, along with kinase inhibitors (dasatinib, pazopanib, sorafenib, and sunitinib) as described above. Initially, the acute lymphoblastic leukaemia cell line CCRF-CEM (see e.g. Foley G E, et al. Cancer 1965, 18, 522-529) was used throughout. In the assay plates, medium was added to six empty wells (blank wells) and wells were filled with PBS and cell suspension and served as control wells. SI-values were then calculated for each compound-treated well as described above. All experiments were conducted twice and a new batch of plates was prepared for each experiment.
For dose-response experiments, 384-well plates were prepared as follows:
as §3, §4

A2780/Cis = assay: FMCA, A2780/Cis cisplatin-resistant ovarian cancer; conditions: A2780cis, read-out: EC50 (μM) in various cancer cell lines: A2780/Cis
Text: as §1, §2, §3, §4, §5

HCT116 = assay: FMCA, HCT116 colon cancer; conditions: Homo sapiens, HCT-116, read-out: EC50 (μM) in various cancer cell lines: HCT116
Text: as §1, §2, §3, §4
as §5, with “Int. J. Cancer 1976, 17, 565-577), vincristin-resistant lymphoma (U-937-vcr; see e.g. Botling J, et al. Int J Cancer 1994, 15; 58 (2), 269-274), ovarian cancer (A2780; see e.g. Hamilton T C, et al. Semin Oncol. 1984, 11, 285-298), doxorubicin-resistant ovarian cancer (A2780/Adr), cisplatin-resistant ovarian cancer (A2780/Cis; see e.g. Behrens B C, et al. Cancer Res. 1987, 47, 414-418), renal cancer (ACHN; see e.g. Borden E C, et al. Cancer Res. 1982, 42(12), 4948-4953), pancreatic cancer (PANC-1, BxPC-3, and MIA PaCa-2; see e.g. Lieber M, et al. Int.” for “Int.”

MIA PaCa-2 = assay: FMCA, MIA PaCa-2 pancreatic cancer; conditions: Homo sapiens, read-out: EC50 (μM) in various cancer cell lines: MIA PaCa-2
Text: as §1
as §2, with “versa. […]” for “versa.”
as §4, with “Each experiment was performed three times, except for PBMC and hRPTEpiC, which were performed twice.” left out, “curves. […]” for “curves.”

H69 = assay: FMCA, H69 lung cancer; conditions: Homo sapiens, NCI-H69, read-out: EC50 (μM) in various cancer cell lines: H69
Text: as §1, §2, §3, §4
as §5, with “Int. J. Cancer 1976, 17, 565-577), vincristin-resistant lymphoma (U-937-vcr; see e.g. Botling J, et al. Int J Cancer 1994, 15; 58 (2), 269-274), ovarian cancer (A2780; see e.g. Hamilton T C, et al. Semin Oncol. 1984, 11, 285-298), doxorubicin-resistant ovarian cancer (A2780/Adr), cisplatin-resistant ovarian cancer (A2780/Cis; see e.g. Behrens B C, et al. Cancer Res. 1987, 47, 414-418), renal cancer (ACHN; see e.g. Borden E C, et al. Cancer Res. 1982, 42(12), 4948-4953), pancreatic cancer (PANC-1, BxPC-3, and MIA PaCa-2; see e.g. Lieber M, et al. Int.” for “Int.”

EC50 (A2780/Adr): 12.6 µM
EC50 (BxPC-3): < 1 µM
EC50 (MCF7): 28.5 µM
EC50 (A2780/Cis): 1.99 µM
EC50 (HCT116): 9.83 µM
EC50 (MIA PaCa-2): < 1 µM
EC50 (H69): 30.7 µM
Structure (SMILES): c1cc(Nc2nccc(NCc3ccc4[nH]cnc4c3)n2)c2cc[nH]c2c1 [Example 19, N^4-(1H-benzo[d]imidazol-5-ylmethyl)-N^2-(1H-indol-4-yl)pyrimidine-2,4-diamine]
EC50 [1]: 1.02 µM
